Data taken from US20190053492A1, “SUBSTITUTED PYRIDINE COMPOUNDS AS PESTICIDES” (Bayer CropScience Aktiengesellschaft, priority 2016, published 2019).
Read-outs that look alike come from different tables or passages of the source.

Columns and labels:
[1] = log P by HPLC on reversed-phase column (C 18), EEC Directive 79/831 Annex V.A8; assay type: physicochemical; conditions: 55° C.; for chromatographic logP: reversed-phase HPLC column (C 18); for LOGP_HCOOH: log P (HCOOH)
Experimental: Temperature: 55° C. […] Called log P (HCOOH) in the table. […] Called log P (neutral) in the table.

[2] = system: Spodoptera frugiperda; test: Spodoptera frugiperda spray test; assay type: in vivo; conditions: after 7 days, maize leaf discs
Experimental: Spodoptera frugiperda—Spray Test
Solvent: 78.0 parts by weight of acetone • • 1.5 parts by weight of dimethylformamide
Emulsifier: alkylaryl polyglycol ether
To produce a suitable active ingredient formulation, 1 part by weight of active ingredient is dissolved with the specified parts by weight of solvent and made up with water containing an emulsifier concentration of 1000 ppm until the desired concentration is attained. To produce further test concentrations, the formulation is diluted with emulsifier-containing water.
Leaf discs of maize (Zea mays) are sprayed with an active ingredient formulation of the desired concentration and, after drying, populated with caterpillars of the armyworm (Spodoptera frugiperda).
After 7 days, the efficacy in % is determined. 100% means that all the caterpillars have been killed; 0% means that no caterpillar has been killed.

[3] = pH 2.7, LC-MS acidic range, pH 2.7, 0.1% formic acid/acetonitrile, read-out: log P (acidic) / log P (HCOOH)
[4] = pH 7.8, LC-MS neutral range, pH 7.8, ammonium hydrogencarbonate/acetonitrile, read-out: log P (neutral)
[5] = acidic range pH 2.7, 0.1% aqueous formic acid and acetonitrile, reversed-phase column (C 18)
[6] = log P, neutral range, HPLC on reversed-phase column (C 18)
[7] = log P (neutral), HPLC reversed-phase column (C 18)
[8] = acidic range at pH 2.7, 0.1% aqueous formic acid and acetonitrile, HPLC on reversed-phase column (C 18)

| Structure (SMILES) | chromatographic logP [1, 3] | chromatographic logP [1, 4] | LOGP_NEUTRAL [1, 6] | other results |
| --- | --- | --- | --- | --- |
| O=C(NCc1ccc(C(F)(F)F)cc1F)c1cc(-c2ccc(C(F)(F)F)cc2)cc(NC(=O)C2CC2)n1 [Example I-054] |  |  | 4.59 | efficacy (caterpillars killed) ([2]; application rate 500 g/ha): 100%; LOGP_HCOOH [1, 5]: 4.68 |
| N#Cc1cccc(CNC(=O)c2cc(-c3ccc(F)cc3)cc(NC(=O)C3CC3)n2)c1 [Example I-001] |  |  |  | LOGP_HCOOH [1, 5]: 3.26 |
| N#Cc1ccc(CNC(=O)c2cc(-c3ccc(OC(F)(F)F)cc3)cc(NC(=O)C3(C(F)(F)F)CC3)n2)cc1 [Example I-242] |  |  |  | efficacy (caterpillars killed) ([2]; application rate 500 g/ha): 100%; LOGP_HCOOH [1, 5]: 4.57; LOGP_NEUTRAL [1, 7]: 4.63 |
| CC(C)C(=O)Nc1cc(-c2ccc(C(F)(F)F)cc2)cc(C(=O)NCc2cc(F)c(C#N)c(F)c2)n1 [Example I-072] |  |  | 4.04 | LOGP_HCOOH [1, 5]: 4.23 |
| O=C(NC1(c2ccc([N+](=O)[O-])cc2)CC1)c1cc(-c2ccc(OC(F)(F)F)cc2)cc(NC(=O)C2CC2)n1 [Example I-229] |  |  |  | efficacy (caterpillars killed) ([2]; application rate 500 g/ha): 100%; LOGP_HCOOH [1, 8]: 4.23 |
| N#Cc1ccc(CNC(=O)c2cc(-c3ccc(OC(F)(F)F)cc3)cc(NC(=O)c3cnco3)n2)cc1 [Example I-212] |  |  | 3.34 | efficacy (caterpillars killed) ([2]; application rate 500 g/ha): 100%; LOGP_HCOOH [1, 8]: 3.44 |
| N#CCCCCCNC(=O)c1cc(-c2ccc(OC(F)(F)F)cc2)cc(NC(=O)C2CC2)n1 [Example I-200] |  |  | 3.51 | efficacy (caterpillars killed) ([2]; application rate 100 g/ha): 100%; efficacy (caterpillars killed) ([2]; application rate 500 g/ha): 100%; LOGP_HCOOH [1, 8]: 3.59 |
| N#Cc1ccc(CNC(=O)c2cc(-c3ccc(C4(C(F)(F)F)CC4)cc3)cc(NC(=O)C3CC3)n2)cc1 [Example I-193] |  |  | 3.95 | efficacy (caterpillars killed) ([2]; application rate 500 g/ha): 100%; LOGP_HCOOH [1, 8]: 4.12 |
| CCc1cc(C(F)(F)C(F)(F)F)cc(C)c1-c1cc(NC(=O)C2CC2)nc(C(=O)NCc2ccc(C#N)cc2)c1 [Example I-148, N-(4-Cyanobenzyl)-6-[(cyclopropylcarbonyl)amino]-4-[2-ethyl-6-methyl-4-(pentafluoroethyl)phenyl]pyridine-2-carboxamide] | 4.85 | 4.72 | 4.72 | pest or weed control at 500 g/ha ([2]; Spodoptera frugiperda, foliar, 168 h, application rate 500 g/ha, read-out: efficacy (caterpillars killed)): 100%; LOGP_HCOOH [1, 8]: 4.85 |
| Cn1ncc2cccc(CNC(=O)c3cc(-c4ccc(OC(F)(F)F)cc4)cc(NC(=O)C4CC4)n3)c21 [Example I-092] |  |  | 3.67 | efficacy (caterpillars killed) ([2]; application rate 500 g/ha): 100%; LOGP_HCOOH [1, 5]: 3.81 |
| CON(C)C(=O)c1cc(-c2ccc(OC(F)(F)F)cc2)cc(NC(=O)C2CC2)n1 [Example I-183] |  |  | 3.18 | LOGP_HCOOH [1, 8]: 3.22 |
| CC(C)CNC(=O)c1cc(-c2ccc(C(F)(F)F)cc2)cc(NC(=O)C2CC2)n1 [Example I-032] |  |  | 3.98 | efficacy (caterpillars killed) ([2]; application rate 500 g/ha): 100%; LOGP_HCOOH [1, 5]: 4.06 |
| N#Cc1ccc(CNC(=O)c2cc(-c3ccc(C(F)(F)F)cc3)cc(NC(=O)c3ccccc3Cl)n2)cc1 [Example I-047] |  |  | 4.15 | efficacy (caterpillars killed) ([2]; application rate 500 g/ha): 83%; LOGP_HCOOH [1, 5]: 4.26 |
| O=C(O)c1cc(-c2ccc(OC(F)(F)F)cc2)cc(NC(=O)C2CC2)n1 [6-[(Cyclopropylcarbonyl)amino]-4-[4-(trifluoromethoxy)phenyl]pyridine-2-carboxylic acid] | 2.72 | 1.25 |  |  |
| N#Cc1ccc(CNC(=O)c2cc(-c3ccc(OC(F)=C(F)F)cc3)cc(NC(=O)C3CC3)n2)cc1 [Example I-171] |  |  | 3.82 | LOGP_HCOOH [1, 8]: 3.96 |
| O=C(NC1CCCCC1)c1cc(-c2ccc(OC(F)(F)F)cc2)cc(NC(=O)C2CC2)n1 [Example I-168] |  |  | 4.57 | LOGP_HCOOH [1, 8]: 4.74 |
| CNc1cc(-c2ccc(OC(F)(F)F)cc2)cc(C(=O)NCc2ccc(C#N)cc2)n1 [XVIII-1, N-(4-Cyanobenzyl)-6-(methylamino)-4-[4-(trifluoromethoxy)phenyl]pyridine-2-carboxamide] | 3.63 | 3.63 |  |  |
| N#Cc1ccc(CNC(=O)c2cc(-c3cc(F)c(C(F)(F)C(F)(F)F)cc3F)cc(NC(=O)C3CC3)n2)cc1 [Example I-275] |  |  |  | LOGP_HCOOH [1, 5]: 4.11 |
| N#Cc1ccc(CNC(=O)c2cc(-c3ccc(C(F)(F)C(F)(F)F)c(F)c3Cl)cc(NC(=O)C3CC3)n2)cc1 [Example I-266] |  |  |  | LOGP_HCOOH [1, 5]: 4.34 |
| N#Cc1ccc(CNC(=O)c2cc(-c3ccc(OC(F)(F)F)cc3)cc(NC(=O)C3(C4CC4)CC3)n2)cc1 [Example I-203] |  |  | 3.32 |  |
| N#CC1CCN(C(=O)c2cc(-c3ccc(OC(F)(F)F)cc3)cc(NC(=O)C3CC3)n2)CC1 [Example I-199] |  |  |  | LOGP_HCOOH [1, 8]: 3.21 |
| N#Cc1ccc(CNC(=O)c2cc(-c3cc(F)c(C(F)(F)C(F)(F)F)c(Cl)c3)cc(NC(=O)C3CC3)n2)cc1 [Example I-278] |  |  |  | LOGP_HCOOH [1, 5]: 4.67; LOGP_NEUTRAL [1, 7]: 4.52 |
| COC(=O)c1cc(-c2ccc(OC(F)(F)F)cc2)cc(NC(=O)C2CC2)n1 [XXIII-2, Methyl 6-[(cyclopropylcarbonyl)amino]-4-[4-(trifluoromethoxy)phenyl]pyridine-2-carboxylate] | 3.63 | 3.54 |  |  |
| Cc1cc(-c2cc(NC(=O)C3CC3)nc(C(=O)NCc3ccc(C#N)cc3)c2)cc(F)c1C(F)(F)C(F)(F)F [Example I-267] |  |  |  | LOGP_HCOOH [1, 5]: 4.45 |
| NC(=O)c1cc(-c2ccc(C(F)(F)C(F)(F)F)c(F)c2)cc(NC(=O)C2CC2)n1 [XXIII-1, 6-[(Cyclopropylcarbonyl)amino]-4-[3-fluoro-4-(pentafluoroethyl)phenyl]pyridine-2-carboxamide] | 3.18 | 3.17 |  |  |
| N#Cc1ccc(CNC(=O)c2cc(B(O)O)cc(NC(=O)C3CC3)n2)cc1 [Example X-1b, {2-[(4-Cyanobenzyl)carbamoyl]-6-[(cyclopropylcarbonyl)amino]pyridin-4-yl}boric acid] | 1.58 | 1.25 |  |  |
| C=Cc1cc(-c2ccc(OC(F)(F)F)cc2)cc(Cl)n1 [XV-1, 2-Chloro-4-[4-(trifluoromethoxy)phenyl]-6-vinylpyridine] | 4.77 | 4.72 |  |  |

More lines, main results first:

| chromatographic logP [1, 3] | chromatographic logP [1, 4] | LOGP_NEUTRAL [1, 6] | Structure (SMILES) | other results |
| --- | --- | --- | --- | --- |
| 2.57 | 2.55 |  | NNC(=O)c1cc(-c2ccc(OC(F)(F)F)cc2)cc(NC(=O)C2CC2)n1 [XXIV-1, N-{6-(Hydrazinocarbonyl)-4-[4-(trifluoromethoxy)phenyl]pyridin-2-yl}cyclopropanecarboxamide] |  |
| 4.63 | 4.62 |  | FC(F)(F)Oc1ccc(-c2cc(Cl)nc(Cl)c2)cc1 [XIV-1, 2,6-Dichloro-4-[4-(trifluoromethoxy)phenyl]pyridine] |  |
|  | 2.82 |  | N#Cc1ccc(CNC(=O)c2cc(-c3ccc(Cl)cc3)cc(N)n2)cc1 [XX-1, 6-Amino-4-(4-chlorophenyl)-N-(4-cyanobenzyl)pyridine-2-carboxamide] |  |
|  | 3.19 |  | N#Cc1ccc(CNC(=O)c2cc(-c3ccc(C(F)(F)F)cc3)cc(N)n2)cc1F [XX-3, 6-Amino-N-(4-cyano-3-fluorobenzyl)-4-[4-(trifluoromethyl)phenyl]pyridine-2-carboxamide] |  |
|  | 2.4 |  | CN(C(=O)c1cc(-c2ccc(C(F)(F)F)cc2)cc(N)n1)C1CC1 [XX-2, 6-Amino-N-cyclopropyl-N-methyl-4-[4-(trifluoromethyl)phenyl]pyridine-2-carboxamide] |  |
| 4.23 | 4.19 |  | N#Cc1ccc(CNC(=O)c2cc(-c3ccc(OC(F)(F)F)cc3)cc(Cl)n2)cc1 [XVII-1, 6-Chloro-N-(4-cyanobenzyl)-4-[4-(trifluoromethoxy)phenyl]pyridine-2-carboxamide] |  |
| 1.02 |  |  | Nc1cc(-c2ccc(Cl)cc2)cc(C(=O)O)n1 [XIX-1, 6-Amino-4-(4-chlorophenyl)pyridine-2-carboxylic acid] |  |
| 3.85 | 3.83 |  | Nc1cc(-c2ccc(C(F)(F)C(F)(F)F)c(F)c2)cc(Cl)n1 [XXI-1, 6-Chloro-4-[3-fluoro-4-(pentafluoroethyl)phenyl]pyridin-2-amine] |  |
| 4.92 | 4.97 |  | Fc1cc(-c2cc(Cl)nc(Cl)c2)ccc1C(F)(F)C(F)(F)F [XIV-2, 2,6-Dichloro-4-[3-fluoro-4-(pentafluoroethyl)phenyl]pyridine] |  |
| 3 | 1.17 |  | O=C(O)c1cc(-c2ccc(OC(F)(F)F)cc2)cc(Cl)n1 [XVI-1, 6-Chloro-4-[4-(trifluoromethoxy)phenyl]pyridine-2-carboxylic acid] |  |
| 4.76 | 4.64 |  | O=C(Nc1cc(-c2ccc(C(F)(F)C(F)(F)F)c(F)c2)cc(Cl)n1)C1CC1 [XXII-1, N-{6-Chloro-4-[3-fluoro-4-(pentafluoroethyl)phenyl]pyridin-2-yl}cyclopropanecarboxamide] |  |
| 3.85 | 3.89 |  | N#Cc1cc(-c2ccc(OC(F)(F)F)cc2)cc(NC(=O)C2CC2)n1 [XXIX-1, N-{6-Cyano-4-[4-(trifluoromethoxy)phenyl]pyridin-2-yl}cyclopropanecarboxamide] |  |
